Assay results reported in patent US8338401B2, “Coumarin-amide derivatives and its preparation, said drug composition and its use” (Institute of Materia Medica Chinese Academy of Medical …, priority 2002, dated 2012).
In brackets after ≈: the same amount, converted by molar mass. Like-named read-outs stand apart in the source and are kept apart here.

Legend:
TGF-β receptor = TGF-β receptor binding antagonism assay ([125I]TGF-β1) in Balb/c 3T3 cells; settings: for Inhibition Rate (%): 10 μg/ml, 50 pmol/L [125I]TGF-β1
Experimental: Balb/c 3T3 cells were seeded in 24 well-plate and cultured in Dulbecco's modified Eagle's medium (DMEM) supplemented with 10% fetal bovine serum, in 37° C. and 5% CO2, for 2-4 days. When cells were at a near-confluent, medium was changed to the binding buffer (50 mmol/L HEPES containing NaCl, KCl, MgSO4 and CaCl2). The assay was initiated by addition of 50 pmol/L [^125I]TGF-β1 and test compounds. After incubation for 210-240 minutes, the medium was removed, and cells were washed with ice-cold binding buffer. Non-specific bindings in the presence of 10 nmol/L TGF-β1 were determined. The cells were then solubilized using buffer containing Triton X-100 and the radioactivity was measured (see Table 4).

[1] = tested on: chronic renal failure induced by 5/6 nephrectomy in rats; format: in vivo, Male Wistar rats
Experimental: The model on chronic renal failure induced by partial renal ablation in rats was set up according to the Guidelines of Pre-clinic Research for New Drugs. Male Wistar rats with initial body weights of 200 g, anesthetized with 35 mg/kg of pentobarbital i.p., the right kidney was removed, and the upper and lower pole […] of the left kidney were resected, stop bleeding, closed the abdominal and sutured. Four weeks following surgery, the BUN, creatinine and urinary protein in rats were determined. […] Rats were randomly divided into seven groups, 30/group, with sham, model, Benazepril (4 mg/kg/day) and Losartan (10 mg/kg/day) as positive control, and compound 149 groups (7.5 mg/kg/day, 15 mg/kg/day and 30 mg/kg/day, respectively). All the groups were administered intragastrically, once per day and 6 (six) times per week, till 16 weeks post surgery. Body weights were weighed to observe the growth of the rats. The above indexes were determined every 4 weeks up to the 16th week following the initiation of drug administration, and at each time, a number of animals were sacrificed and the kidneys were harvested for pathological analysis. Pathological lesions in chronic renal failure models are mainly glomerulosclerosis and interstitial fibrosis. According to the damage extents, glomerulosclerosis is divided into five grades (0 IV). 0 grade means no glomerulus pathological changes at all, and IV grade means ultimately glomerular sclerosis and glassy pathological changes.

[2] = tested on: kidney tubulointerstitial fibrosis caused by unilateral ureteral obstruction (UUO) in rats; assay: Inhibition of kidney tubulointerstitial fibrosis caused by unilateral ureteral obstruction (UUO) in rats; format: in vivo, Male Wistar rats; settings: UUO rats; for BUN: oral for 16 days
Experimental: Male Wistar rats with initial body weights of 180˜230 g were used. Unilateral ureteral obstruction was performed under pentobarbital anesthesia (35 mg/kg) and sterile conditions. Via a midline incision, the left ureteral was ligated. Sham surgery was performed by making a midline incision but leaving ureteral intact. Following surgery, rats were randomly divided into sham, model, Benazepril (4 mg/kg/day) and Losartan (10 mg/kg/day) as positive control, and compound 149 (5 mg/kg/day, 10 mg/kg/day and 20 mg/kg/day). Starting 2 day before surgery, Benazepril, Losartan and compound 149 were administered for 16 days orally. BUN and creatinine in serum were determined in the 11th and 16th day (Table 6) following initiation of Benazepril, Losartan and compound 149 treatment, at which time animals were killed and the kidneys were harvested. Tissues were dissected, weighed, fixed in 10% formaldehyde and embedded in paraffin wax for pathological analysis.

[3] = 8th week after administration (12 weeks after nephrectomy), 10 mg/kg
[4] = 8th week after administration (12 wk after nephrectomy), 10 mg/kg
[5] = 12th week after administration (16 weeks after nephrectomy), 10 mg/kg
[6] = 12th week after administration (16 wk after nephrectomy), 10 mg/kg
[7] = 8th week after administration (12 weeks after nephrectomy), 4 mg/kg
[8] = 8th week after administration (12 wk after nephrectomy), 4 mg/kg
[9] = 12th week after administration (16 weeks after nephrectomy), 4 mg/kg
[10] = 12th week after administration (16 wk after nephrectomy), 4 mg/kg
[11] = 16 weeks after nephrectomy (12 weeks since administration), 4 mg/kg/day

SMILES: CCOC(=O)c1cc2cc([N+](=O)[O-])c(OC)c(OC)c2oc1=O [Compound 227, 3-ethoxycarbonyl-6-nitro-7,8-dimethoxy-coumarin]
- melting point: 191 °C

SMILES: CCOC(=O)c1cc2cc([N+](=O)[O-])c(O)c([N+](=O)[O-])c2oc1=O
- melting point: 176 °C

SMILES: CCOC(=O)c1cc2cc(Cl)c(O)c([N+](=O)[O-])c2oc1=O [Compound 241, 3-ethoxycarbonyl-6-chloro-7-hydroxy-8-nitro-coumarin]
- melting point: 195 °C

SMILES: COc1ccc2cc(C(=O)Nc3ccc(S(=O)(=O)Nc4cc(C)on4)cc3)c(=O)oc2c1C [Compound 55]
- Inhibition Rate (%) (TGF-β receptor): 52.3%

SMILES: COc1cc2oc(=O)c(C(=O)Nc3ccc(O)c(C(=O)O)c3)cc2cc1Cl [Compound 88, 3-(3′-carboxy-4′-hydroxy-phenylamidocarbonyl)-6-chloro-7-methoxy-coumarin]
- IC50 (TGF-β receptor): 5.3 µg/mL (≈ 13.6 µM)
- Inhibition Rate (%) (TGF-β receptor): 111.2%
- melting point: > 300 °C

SMILES: CCCCc1nc(Cl)c(CO)n1Cc1ccc(-c2ccccc2-c2nn[nH]n2)cc1 [Losartan, reference compound]
- BUN [1, 3]: 25.64 ± 5.116 mg/dL
- serum creatinine (Scr.) [1, 3]: 2.34 ± 0.268 mg/dL
- AII (Angiotensin II) [1, 4]: 96.7 ± 32.1 pg/mL
- UP (urinary protein) [1, 4]: 32.7 ± 10.3 mg/day
- serum TGF-β1 [1, 4]: 18.7 ± 9.2 ng/mL
- Glomerulosclerosis Grade (%): 0 ([1]; 8 wk after ad., 10 mg/kg/day): 54.4 ± 29.2 %
- Glomerulosclerosis Grade (%): I ([1]; 8 wk after ad., 10 mg/kg/day): 31.9 ± 20.0%
- Glomerulosclerosis Grade (%): II ([1]; 8 wk after ad., 10 mg/kg/day): 13.7 ± 14.0%
- Glomerulosclerosis Grade (%): III ([1]; 8 wk after ad., 10 mg/kg/day): 1.1 ± 3.3 %
- Glomerulosclerosis Grade (%): IV ([1]; 8 wk after ad., 10 mg/kg/day): 0%
- Glomerulosclerosis Total Grade ([1]; 8 wk after ad., 10 mg/kg/day): 2.8 ± 1.0
- BUN [1, 5]: 37.84 ± 5.672 mg/dL
- serum creatinine (Scr.) [1, 5]: 2.21 ± 0.48 mg/dL
- AII (Angiotensin II) [1, 6]: 38.9 ± 17.4 pg/mL
- UP (urinary protein) [1, 6]: 39.3 ± 14.2 mg/day
- serum TGF-β1 [1, 6]: 11.8 ± 12.6 ng/mL
- Glomerulus pathological scores, compared with the model group ([1]; 12 weeks after nephrectomy (8 weeks since administration), compound 149 30 mg/kg, Losartan 10 mg/kg/day): less than that of the model group significantly
- rates of 0 grade glomerylus in residual kidney, compared with the model group ([1]; 12 weeks after nephrectomy (8 weeks since administration), compound 149 30 mg/kg, Losartan 10 mg/kg/day, P<0.05): higher than that of the model group with significant difference
- Glomerulosclerosis Grade (%): 0 ([1]; 12 wk after ad., 10 mg/kg/day): 0%
- Glomerulosclerosis Grade (%): I ([1]; 12 wk after ad., 10 mg/kg/day): 10.0 ± 2.9%
- Glomerulosclerosis Grade (%): II ([1]; 12 wk after ad., 10 mg/kg/day): 45.7 ± 17.7%
- Glomerulosclerosis Grade (%): III ([1]; 12 wk after ad., 10 mg/kg/day): 41.9 ± 25.6%
- Glomerulosclerosis Grade (%): IV ([1]; 12 wk after ad., 10 mg/kg/day): 2.8 ± 4.8%
- Glomerulosclerosis Total Grade ([1]; 12 wk after ad., 10 mg/kg/day): 7.2 ± 1.3
- number of grade III glomerulus, compared with the model group ([1]; 16 weeks after nephrectomy (12 weeks since administration), compound 149 30 mg/kg (P<0.01), Losartan 10 mg/kg/day (P<0.05)): less than that of the model group significantly
- inflammatory cell infiltration and tubulointerstitial fibrosis (pathological changes) [2]: significantly attenuated
- BUN ([2]; 10.0 mg/kg): 23.88 ± 2.94 mg/dL

SMILES: COc1ccc2cc(C(=O)Nc3ccc(S(=O)(=O)NC(=N)N)cc3)c(=O)oc2c1OC [Compound 66, 3-(4′-guanidinosulfonylphenylamidocarbonyl)-7,8-dimethoxy-coumarin]
- Inhibition Rate (%) (TGF-β receptor): 52.3%

SMILES: CCOC(=O)[C@H](CCc1ccccc1)N[C@H]1CCc2ccccc2N(CC(=O)O)C1=O [Benazepril, reference compound]
- BUN [1, 7]: 37.66 ± 8.895 mg/dL
- serum creatinine (Scr.) [1, 7]: 3.54 ± 1.140 mg/dL
- AII (Angiotensin II) [1, 8]: 74.3 ± 13.2 pg/mL
- UP (urinary protein) [1, 8]: 51.1 ± 23.6 mg/day
- serum TGF-β1 [1, 8]: 40.9 ± 26.6 ng/mL
- Glomerulosclerosis Grade (%): 0 ([1]; 8 wk after ad., 4 mg/kg/day): 12.2 ± 19.0%
- Glomerulosclerosis Grade (%): I ([1]; 8 wk after ad., 4 mg/kg/day): 29.6 ± 23.9%
- Glomerulosclerosis Grade (%): II ([1]; 8 wk after ad., 4 mg/kg/day): 28.1 ± 18.1%
- Glomerulosclerosis Grade (%): III ([1]; 8 wk after ad., 4 mg/kg/day): 19.6 ± 24.2%
- Glomerulosclerosis Grade (%): IV ([1]; 8 wk after ad., 4 mg/kg/day): 5.9 ± 11.2%
- Glomerulosclerosis Total Grade ([1]; 8 wk after ad., 4 mg/kg/day): 5.5 ± 2.6
- BUN [1, 9]: 39.48 ± 7.109 mg/dL
- serum creatinine (Scr.) [1, 9]: 2.28 ± 0.70 mg/dL
- AII (Angiotensin II) [1, 10]: 47.8 ± 12.0 pg/mL
- UP (urinary protein) [1, 10]: 66.3 ± 31.9 mg/day
- serum TGF-β1 [1, 10]: 12.8 ± 14.8 ng/mL
- inflammatory cell infiltration in kidney tissues ([1]; 12 weeks after nephrectomy (8 weeks since administration), 4 mg/kg/day, some animals): severe
- Glomerulosclerosis Grade (%): 0 ([1]; 12 wk after ad., 4 mg/kg/day): 0%
- Glomerulosclerosis Grade (%): I ([1]; 12 wk after ad., 4 mg/kg/day): 0%
- Glomerulosclerosis Grade (%): II ([1]; 12 wk after ad., 4 mg/kg/day): 19.1 ± 27.1%
- Glomerulosclerosis Grade (%): III ([1]; 12 wk after ad., 4 mg/kg/day): 46.2 ± 15.6%
- Glomerulosclerosis Grade (%): IV ([1]; 12 wk after ad., 4 mg/kg/day): 34.8 ± 29.9%
- Glomerulosclerosis Total Grade ([1]; 12 wk after ad., 4 mg/kg/day): 9.8 ± 1.4
- glomerulus pathological score, rank among groups [1, 11]: the highest
- inflammatory cell infiltration in kidney matrix [1, 11]: medium-severe
- inflammatory cell infiltration and tubulointerstitial fibrosis (pathological changes) [2]: more significant
- animals with focal abscess formations in the medulla of kidney ([2]; 4 mg/kg/day): 4/7
- BUN ([2]; 4.0 mg/kg): 20.99 ± 1.58 mg/dL

SMILES: CCOC(=O)c1cc2cc([N+](=O)[O-])c(OC)c([N+](=O)[O-])c2oc1=O
- melting point: 152 °C

SMILES: COc1ccc2cc(C(=O)Nc3cccc(C(=O)O)c3)c(=O)oc2c1 [Compound 2, 3-(m-carboxyphenylamidocarbonyl)-7-methoxycoumarin]
- IC50 (TGF-β receptor): 13.8 µg/mL (≈ 40.7 µM)
- Inhibition Rate (%) (TGF-β receptor): 74.1%
- melting point: > 300 °C

SMILES: COc1cc2oc(=O)c(C(=O)Nc3ccc(S(=O)(=O)NC(=N)N)cc3)cc2cc1Cl [Compound 92, 3-(4′-guanidinosulfonylphenylamidocarbonyl)-6-chloro-7-methoxy-coumarin]
- Inhibition Rate (%) (TGF-β receptor): 106.4%

SMILES: COc1ccc2cc(-c3nnc(-c4ccccc4)o3)c(=O)oc2c1 [Compound 206, 3-(2′-phenyl-1′,3′,4′-oxadiazol-5′yl)-7-methoxycoumarin]
- Inhibition Rate (%) (TGF-β receptor): −0.7%

SMILES: COc1cc2oc(=O)c(C(=O)Nc3ccc(C(=O)O)c(O)c3)cc2cc1Br [Compound 96, 3-(3′-hydroxy-4′-carboxy-phenylamidocarbonyl)-6-bromo-7-methoxy-coumarin]
- Inhibition Rate (%) (TGF-β receptor): 82.3%

SMILES: CCc1cc2cc(C(=O)Nc3ccc(O)c(C(=O)O)c3)c(=O)oc2cc1OC [Compound 27, 3-(3′-carboxy-4′-hydroxy-phenylamidocarbonyl)-6-ethyl-7-methoxy-coumarin]
- Inhibition Rate (%) (TGF-β receptor): 77.2%

SMILES: CCOC(=O)c1cc2cc(CC)c(O)c([N+](=O)[O-])c2oc1=O [Compound 233, 3-ethoxycarbonyl-6-ethyl-7-hydroxy-8-nitro-coumarin]
- melting point: 143 °C

SMILES: COc1cc2oc(=O)c(C(=O)Nc3ccc(C(=O)O)c(O)c3)cc2cc1Cl [Compound 87, 3-(3′-hydroxy-4′-carboxy-phenylamidocarbonyl)-6-chloro-7-methoxy-coumarin]
- Inhibition Rate (%) (TGF-β receptor): 91.1%
